Data as given in patent publication US9856234B2, “Heterocyclic compounds and their use as glycogen synthase kinase 3 inhibitors” (ABBVIE INC., priority 2006, dated 2018).

Biological target: T1, human Glycogen Synthase Kinase-3 beta (hGSK-3β) (Homo sapiens, UniProt P49841)
T1 construct: purchased Upstate cell signaling solutions
Experiment: Biochemical hGSK-3Beta assay (33P-ATP phosphorylation of biotinylated peptide substrate)
Conditions: 10 μM ATP, 30 minutes at room temperature; read-out: GSK-3β IC50
Description: Methods—Biochemical hGSK-3Beta Assay
Compounds were tested for their ability to inhibit human Glycogen Synthase Kinase-3 beta (hGSK-3β) to phosphorylate biotin-[…](pS)EDEEE. Compounds were incubated with 0.5 μCi 33P-ATP, 10 μM ATP, 0.0125 U hGSK-3β (Upstate cell signaling solutions) and 1 μM substrate (biotin-[…](pS)EDEEE) in 50 mM HEPES, 10 mM MgCl2, […], 1 mM DTT, 0.0075% Triton, 2% DMSO (total volume 50 μL) for 30 minutes at room temperature. The incubation was stopped by addition of an equal volume of 100 mM EDTA, 4M NaCl. 80 μL of this mixture was added to streptavidin-coated Flashplates (PerkinElmer). Following a wash step, 33P incorporation was quantified on a MicroBeta microplate liquid scintillation counter (Perkin Elmer). IC50's were determined by fitting a sigmoidal dose-response curve to the counts obtained at the different concentrations in Graph Pad Prism.

T1 sequence (P49841 whole entry): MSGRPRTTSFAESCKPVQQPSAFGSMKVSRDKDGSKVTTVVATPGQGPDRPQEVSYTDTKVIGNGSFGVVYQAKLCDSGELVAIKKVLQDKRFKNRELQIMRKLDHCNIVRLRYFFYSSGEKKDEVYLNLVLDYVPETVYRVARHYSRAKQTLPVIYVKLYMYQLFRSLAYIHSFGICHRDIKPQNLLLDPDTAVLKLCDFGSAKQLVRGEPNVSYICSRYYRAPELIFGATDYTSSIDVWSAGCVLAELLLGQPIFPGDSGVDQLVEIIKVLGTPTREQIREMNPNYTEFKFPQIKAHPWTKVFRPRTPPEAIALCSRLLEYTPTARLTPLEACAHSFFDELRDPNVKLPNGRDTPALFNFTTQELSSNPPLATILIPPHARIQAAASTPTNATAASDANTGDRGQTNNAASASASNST

| IC50 [nM] | Compound |
| --- | --- |
| < 100 | 1-(7-Bromoquinolin-4-yl)-3-(pyrazin-2-yl)urea [Example 28] |
| > 10000 | 1-Methyl-1-pyrazin-2-yl-3-(6-trifluoromethyl-quinolin-4-yl)-urea [Example 22] |
| 100 to 10000 | O=C(Nc1cnccn1)Nc1cncc2ccccc12 [Example 6, 1-Isoquinolin-4-yl-3-pyrazin-2-yl-urea] |
| 100 to 10000 | O=C(Nc1cnccn1)Nc1cccc2ncccc12 [Example 21, 1-Pyrazin-2-yl-3-quinolin-5-yl-urea] |
| < 100 | O=C(Nc1cnccn1)Nc1ccnc2cc(I)ccc12 [Example 27, 1-(7-Iodoquinolin-4-yl)-3-(pyrazin-2-yl)urea] |
| 100 to 10000 | O=C(Nc1ccccn1)Nc1ccnc2cc(C(F)(F)F)ccc12 [Example 29, 1-(Pyridin-2-yl)-3-(7-(trifluoromethyl)quinolin-4-yl)urea] |
| > 10000 | O=C(Nc1ccccc1)Nc1ccnc2ccccc12 [Example 30, 1-Phenyl-3-(quinolin-4-yl)urea, reference compound] |
| < 100 | O=C(Nc1cnccn1)Nc1ccnc2c(Cl)cccc12 [Example 32, 1-(8-Chloroquinolin-4-yl)-3-(pyrazin-2-yl)urea] |
| 100 to 10000 | O=C(Nc1cnccn1)Nc1c(Br)cnc2ccccc12 [Example 35, 1-(3-Bromoquinolin-4-yl)-3-(pyrazin-2-yl)urea] |

More lines, now with the values behind:

| Compound | IC50 [nM] |
| --- | --- |
| 1-(8-Bromoquinolin-4-yl)-3-(pyrazin-2-yl)urea [Example 37] | < 100 |
| 1-(Pyrazin-2-yl)-3-(pyridin-4-yl)urea [Example 24] | 100 to 10000 |
| O=C(Nc1cnccn1)Nc1cc(C(F)(F)F)nc2ccccc12 [Example 1, 1-Pyrazin-2-yl-3-(2-trifluoromethyl-quinolin-4-yl)-urea] | 100 to 10000 |
| O=C(Nc1cnccn1)Nc1ccnc2ccc(Br)cc12 [Example 2, 1-(6-Bromo-quinolin-4-yl)-3-pyrazin-2-yl-urea] | < 100 |
| O=C(Nc1cnccn1)Nc1c2c(nc3ccccc13)CCCC2 [Example 5, 1-Pyrazin-2-yl-3-(1,2,3,4-tetrahydro-acridin-9-yl)-urea] | 100 to 10000 |
| O=C(Nc1cnccn1)Nc1cccc2ccccc12 [Example 7, 1-Naphthalen-1-yl-3-pyrazin-2-yl-urea] | > 10000 |
| Cc1cc(NC(=O)Nc2cnccn2)c2ccccc2n1 [Example 12, 1-(2-Methyl-quinolin-4-yl)-3-pyrazin-2-yl-urea] | 100 to 10000 |
| O=C(Nc1cnccn1)Nc1cccc2ccncc12 [Example 19, 1-Isoquinolin-8-yl-3-pyrazin-2-yl-urea] | 100 to 10000 |
| O=C(Nc1cnccn1)Nc1cccc2cnccc12 [Example 20, 1-Isoquinolin-5-yl-3-pyrazin-2-yl-urea] | 100 to 10000 |
| Cc1cccc2c(NC(=O)Nc3cnccn3)ccnc12 [Example 31, 1-(8-Methylquinolin-4-yl)-3-(Pyrazin-2-yl)urea] | < 100 |
| O=C(Nc1cnccn1)Nc1ccnc2c(I)cccc12 [Example 34, 1-(8-Iodoquinolin-4-yl)-3-(pyrazin-2-yl)urea] | < 100 |
| O=C(Nc1cnc2ccccc2c1)Nc1cnccn1 [Example 40, 1-(Pyrazin-2-yl)-3-(quinolin-3-yl)urea, reference compound] | > 10000 |
